Results taken from EP3498714B1 (priority 2017, dated 2019).
≈ marks a conversion by molar mass, not a printed value. Like-named read-outs stand apart in the source and are kept apart here.

Experiments:
[1] = system: Acinetobacter baumannii DSM-30008; assay: Microbroth dilution assay (MIC); type: cell-based; details: for Minimum inhibitory concentrations (MIC): 18-24 h
Description: (§1) Bacterial strains. All microorganisms were obtained from the German Collection of Microorganisms and Cell Cultures (Deutsche Sammlung für Mikroorganismen und Zellkulturen, DSMZ) and the American Type Culture Collection (ATCC) or were part of our internal strain collection.
(§2) Antimicrobial Testing. Sorangicin A (1) and Neosorangicin A (2) were tested in microbroth dilution assays on a panel of Gram-positive and Gram-negative bacteria. Overnight cultures were prepared from cryopreserved cultures and were diluted to achieve a final inoculum of 10^4-10^5 cfu/mL. Serial dilutions of compounds in DMSO were prepared in sterile 96-well plates in the test medium (cation-adjusted Müller-Hinton broth; supplemented with 2% (w/v) NaCl for S. aureus and 2.5% (v/v) lysed horse blood for Enterococcus and Streptococcus spp.) The cell suspension was added and microorganisms were grown for 18-24 h at either 30°C or 37°C. Streptococci and enterococci were grown under microaerophilic conditions. Growth inhibition was assessed by visual inspection and given MIC values are the lowest concentration of antibiotic at which there was no visible growth. Table 2. Antimicrobial activity; Minimum inhibitory concentrations (MIC, µg/mL) of neosorangicin A (2), sorangicin A (1), and a reference antibiotic (RIF; Rifampicin) on selected Gram-positive (I) and Gram-negative (II) species.

[2] = system: Enterococcus faecalis DSM-20478; assay: Microbroth dilution assay (MIC); type: cell-based; details: 2.5% lysed horse blood, microaerophilic; for Minimum inhibitory concentrations (MIC): 18-24 h
Description: as §1, §2

[3] = system: Enterococcus faecium DSM-20477; assay: Microbroth dilution assay (MIC); type: cell-based; details: 2.5% lysed horse blood, microaerophilic; for Minimum inhibitory concentrations (MIC): 18-24 h
Description: as §1, §2

[4] = system: Escherichia coli (TolC-deficient); assay: Microbroth dilution assay (MIC); type: cell-based; details: for Minimum inhibitory concentrations (MIC): Escherichia coli (TolC-deficient), 18-24 h
Description: as §1, §2

[5] = system: Escherichia coli DSM-1116; assay: Microbroth dilution assay (MIC); type: cell-based; details: for Minimum inhibitory concentrations (MIC): 18-24 h
Description: as §1, §2

[6] = system: Escherichia coli DSM-26863 (tolC3); assay: Microbroth dilution assay (MIC); type: cell-based; details: for Minimum inhibitory concentrations (MIC): Escherichia coli DSM-26863 (tolC3), 18-24 h
Description: as §1, §2

[7] = system: Klebsiella pneumoniae DSM-30104; assay: Microbroth dilution assay (MIC); type: cell-based; details: for Minimum inhibitory concentrations (MIC): 18-24 h
Description: as §1, §2

[8] = system: Pseudomonas aeruginosa DSM-1128; assay: Microbroth dilution assay (MIC); type: cell-based; details: for Minimum inhibitory concentrations (MIC): 18-24 h
Description: as §1, §2

[9] = system: Staphylococcus aureus ATCC29213; assay: Microbroth dilution assay (MIC); type: cell-based; details: 18-24 h, 2% NaCl
Description: as §1, §2

[10] = system: Staphylococcus aureus DSM-346; assay: Microbroth dilution assay (MIC); type: cell-based; details: 2% NaCl; for Minimum inhibitory concentrations (MIC): 18-24 h
Description: as §1, §2

[11] = system: Staphylococcus aureus Newman (Rif^R); assay: Microbroth dilution assay (MIC); type: cell-based; details: for Minimum inhibitory concentrations (MIC): Staphylococcus aureus Newman (Rif^R), 18-24 h, 2% NaCl; for activity on rifampicin-resistant (Rif^R) derivative of S. aureus Newman: result in words
Description: as §1, §2

[12] = system: Staphylococcus aureus Newman; assay: Microbroth dilution assay (MIC); type: cell-based; details: 18-24 h, 2% NaCl
Description: as §1, §2

[13] = system: Streptococcus pneumoniae DSM-11865; assay: Microbroth dilution assay (MIC); type: cell-based; details: 2.5% lysed horse blood, microaerophilic; for Minimum inhibitory concentrations (MIC): 18-24 h
Description: as §1, §2

[14] = system: Escherichia coli DSM-1116 + 3 µg/ml PMBN; assay: Microbroth dilution assay (MIC) with PMBN; type: cell-based; details: for Minimum inhibitory concentrations (MIC): 18-24 h
Description: as §1, §2
However, similar to 1, neosorangicin A (2) was not active on a rifampicin-resistant (Rif^R) derivative of S. aureus Newman, which confirms overlapping binding sites on RNA polymerase. […] In addition, the MIC values of 2 on efflux-deficient E. coli mutants (TolC as part of the AcrAB multidrug efflux system) were decreased.

S. aureus Newman = assay: MIC in RPMI-1640 macrophage growth medium; type: cell-based; details: RPMI-1640 macrophage growth medium supplemented with 0.5% (v/v) FBS
Description: Determination of intracellular efficiency. For infection experiments, cells were seeded in 24-well plates in RPMI-1640 supplemented with 10% FBS and 150 nM phorbol 12-myristate 13-acetate (PMA) at a concentration of 10^5 cells/well. After 2 d, the cells were differentiated into macrophages and reached a cell density of ca. 2 x 10^5 cells/well. The medium was then removed and the cells were washed twice with PBS. An inoculum of ca. 2×10^6 CFU (colony-forming units) of S. aureus Newman in log phase (multiplicity of infection, MOI=10) was added to each well in RPMI/10% FBS and the plates were incubated at 37 °C and 5% CO2 in a water vapor-saturated atmosphere. The inoculum was checked by serial dilution and plating on CASO agar (1.5% peptone casein, 0.5% peptone soymeal, 0.5% NaCl, 1.5% agar, pH 7.3). After 2 h, the infected cells were washed three times with PBS (phosphate-buffered saline; pH 7.4) and incubated with fresh growth medium containing 10 µg/mL lysostaphin (≥500 U/mg) for 30 min in order to kill remaining extracellular bacteria. The initial load (Control t0) was checked by recovery of intracellular bacteria and plating on CASO agar. After three times washing with PBS the test compounds were added in RPMI-1640/0.5% FBS at the given concentrations for 18 h. After repeated washing with PBS the intracellular bacteria were recovered by adding ice-cooled water for 10 min and the bacterial suspensions were further diluted in 0.9% (w/v) NaCl prior to plating on CASO agar. The plates were incubated overnight at 37 °C and colonies were counted. The MIC values on S. aureus Newman in RPMI-1640 macrophage growth medium supplemented with 0.5% (v/v) fetal bovine serum (FBS) for neosorangicin A (2), sorangicin A (1) and the reference antibiotic rifampicin (RIF) were 0.01, 0.13 and 0.01 µg/mL, respectively. Human THP-1 macrophages were infected with S. aureus at an MOI (multiplicity of infection) of 10. After killing of extracellular bacteria, the cells were treated for 18 h with the antibiotics at their respective 1x and 8x MIC. […]

S. aureus RNA polymerase = target: T1, S. aureus RNA polymerase (Staphylococcus aureus, UniProt P47768); assay: RNA polymerase inhibition assay (ProFoldin kit); type: biochemical
T1 construct: purchased ProFoldin, MA
T1 sequence (P47768 whole entry): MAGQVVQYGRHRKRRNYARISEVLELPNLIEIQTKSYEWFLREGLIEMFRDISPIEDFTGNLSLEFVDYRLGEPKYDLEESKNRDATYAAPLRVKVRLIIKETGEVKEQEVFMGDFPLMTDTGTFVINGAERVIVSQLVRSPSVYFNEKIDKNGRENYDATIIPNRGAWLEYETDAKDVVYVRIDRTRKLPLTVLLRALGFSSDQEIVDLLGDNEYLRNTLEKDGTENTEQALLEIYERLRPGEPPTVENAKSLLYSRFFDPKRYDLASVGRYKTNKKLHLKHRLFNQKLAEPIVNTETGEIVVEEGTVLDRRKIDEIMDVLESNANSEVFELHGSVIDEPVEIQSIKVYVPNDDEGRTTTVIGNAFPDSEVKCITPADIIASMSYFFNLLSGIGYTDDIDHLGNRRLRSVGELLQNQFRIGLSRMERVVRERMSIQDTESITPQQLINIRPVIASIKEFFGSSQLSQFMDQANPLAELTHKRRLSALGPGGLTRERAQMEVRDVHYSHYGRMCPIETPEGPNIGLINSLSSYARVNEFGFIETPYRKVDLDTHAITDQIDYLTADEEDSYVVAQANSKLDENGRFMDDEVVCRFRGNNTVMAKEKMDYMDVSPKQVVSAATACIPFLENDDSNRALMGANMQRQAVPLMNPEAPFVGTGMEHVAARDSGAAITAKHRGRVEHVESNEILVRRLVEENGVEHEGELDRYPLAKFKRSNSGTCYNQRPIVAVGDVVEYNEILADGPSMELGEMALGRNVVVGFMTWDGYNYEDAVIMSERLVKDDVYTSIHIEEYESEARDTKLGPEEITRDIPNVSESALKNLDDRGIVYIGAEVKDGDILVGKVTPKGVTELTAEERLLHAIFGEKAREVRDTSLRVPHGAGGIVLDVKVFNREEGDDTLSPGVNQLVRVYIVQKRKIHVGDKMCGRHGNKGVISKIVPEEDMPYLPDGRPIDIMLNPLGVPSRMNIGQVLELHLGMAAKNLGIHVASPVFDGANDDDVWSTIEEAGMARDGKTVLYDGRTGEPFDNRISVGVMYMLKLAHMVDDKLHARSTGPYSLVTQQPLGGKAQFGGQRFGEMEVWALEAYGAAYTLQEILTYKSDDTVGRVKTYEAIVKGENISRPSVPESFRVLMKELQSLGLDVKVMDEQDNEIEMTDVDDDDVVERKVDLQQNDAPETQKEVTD
Description: The inhibition of S. aureus RNA polymerase by Sorangicin derivatives 1 and 2 was tested in vitro (bacterial RNA Polymerase Assay Kit; ProFoldin, MA). The samples were prepared and analyzed according to the manufacturer's protocol with slight modifications. In brief, serial dilutions (concentration range: 0.1 nM - 10 µM) of rifampicin, sorangicin A (1) and neosorangicin A (2) in black 384-well plates (low-volume, non-binding surface; Corning) were incubated for 1 h at room temperature with 25 nM RNA polymerase from S. aureus in assay buffer (42.5 mM HEPES, 42.5 mM NH4Cl, 2 mM DTT, 4 mM MgCl2, 0.005 % (v/v) Tween-20; pH 7.5) containing 0.5 mM NTPs and 1x DNA template. The reaction was monitored by incubation with a fluorescent probe for 5 min and measurement of the fluorescence intensity at 535 nm after excitation at 485 nm (Tecan Infinite M200PRO). Half-inhibitory concentrations (IC50) were determined in two independent experiments by sigmoidal curve fitting and given values are IC50 ± SD.

[15] = system: intracellular S. aureus Newman; assay: Intracellular efficacy in infected THP-1 macrophages; type: cell-based; details: intracellular S. aureus Newman in PMA-differentiated THP-1 macrophages; MOI 10; 18 h treatment at 1x and 8x MIC
Description: (§3) Cells. Human acute monocytic leukemia THP-1 cells (ACC-16) were obtained from the German Collection of Microorganisms and Cell Cultures (DSMZ) and were maintained under conditions recommended by the depositor.
Determination of intracellular efficiency. For infection experiments, cells were seeded in 24-well plates in RPMI-1640 supplemented with 10% FBS and 150 nM phorbol 12-myristate 13-acetate (PMA) at a concentration of 10^5 cells/well. After 2 d, the cells were differentiated into macrophages and reached a cell density of ca. 2 x 10^5 cells/well. The medium was then removed and the cells were washed twice with PBS. An inoculum of ca. 2×10^6 CFU (colony-forming units) of S. aureus Newman in log phase (multiplicity of infection, MOI=10) was added to each well in RPMI/10% FBS and the plates were incubated at 37 °C and 5% CO2 in a water vapor-saturated atmosphere. The inoculum was checked by serial dilution and plating on CASO agar (1.5% peptone casein, 0.5% peptone soymeal, 0.5% NaCl, 1.5% agar, pH 7.3). After 2 h, the infected cells were washed three times with PBS (phosphate-buffered saline; pH 7.4) and incubated with fresh growth medium containing 10 µg/mL lysostaphin (≥500 U/mg) for 30 min in order to kill remaining extracellular bacteria. […] The plates were incubated overnight at 37 °C and colonies were counted. […]

Human THP-1 macrophages = assay: Toxicity towards THP-1 macrophages (microscopic control); type: cell-based; details: 18 h treatment at 1x and 8x MIC
Description: • Figure 1. Chemical structures of sorangicin A (1) and of a compound according to the present invention - neosorangicin A - (2). • Figure 2. A) Reduction of intracellular S. aureus Newman (CFU: colony-forming unit) in PMA-differentiated THP-1 cells after 18 h treatment with rifampicin (RIF), neosorangicin A (2) and sorangicin A (1) at their respective 1x and 8x MIC. B) Microscopic control of THP-1 cells that were either treated with neosorangicn A (2) or 0.5% (v/v) DMSO as solvent control. • Figure 3. Comparison of sorangicin and neosorangicin biosynthetic pathways. Wavy bond symbolize phosphopantheteinyl arms. ACP domains are shown as small, unlabeled circles. Domains that are missing from one of the two pathways are shown as asterisks.
as §3
Determination of intracellular efficiency. For infection experiments, cells were seeded in 24-well plates in RPMI-1640 supplemented with 10% FBS and 150 nM phorbol 12-myristate 13-acetate (PMA) at a concentration of 10^5 cells/well. After 2 d, the cells were differentiated into macrophages and reached a cell density of ca. 2 x 10^5 cells/well. […] The plates were incubated overnight at 37 °C and colonies were counted. […]

[16] = DSM1116, 18-24 h, read-out: Minimum inhibitory concentrations (MIC)
[17] = read-out: Minimum inhibitory concentrations (MIC)
[18] = purified S. aureus RNA polymerase 25 nM, 1 h at room temperature, IC50 ± SD, two independent experiments, read-out: IC50

| Compound | Minimum inhibitory concentrations (MIC) [1] [µg/mL] | Minimum inhibitory concentrations (MIC) [2] [µg/mL] | Minimum inhibitory concentrations (MIC) [3] [µg/mL] | Minimum inhibitory concentrations (MIC) [4] [µg/mL] | Minimum inhibitory concentrations (MIC) [5] [µg/mL] | Minimum inhibitory concentrations (MIC) [6] [µg/mL] | Minimum inhibitory concentrations (MIC) [7] [µg/mL] | Minimum inhibitory concentrations (MIC) [8] [µg/mL] | Minimum inhibitory concentrations (MIC) [9] [µg/mL] | Minimum inhibitory concentrations (MIC) [10] [µg/mL] | Minimum inhibitory concentrations (MIC) [11] [µg/mL] | activity on rifampicin-resistant (Rif^R) derivative of S. aureus Newman [11] | Minimum inhibitory concentrations (MIC) [12] [µg/mL] | Minimum inhibitory concentrations (MIC) [13] [µg/mL] | Minimum inhibitory concentrations (MIC) [14] [µg/mL] | MIC values on S. aureus Newman (S. aureus Newman) [µg/mL] | IC50 (S. aureus RNA polymerase; [18]) [nM] | further results |
| --- | --- | --- | --- | --- | --- | --- | --- | --- | --- | --- | --- | --- | --- | --- | --- | --- | --- | --- |
| CO[C@H]1/C=C/O[C@@]2(C)Oc3c(C)c(O)c4c(O)c(c(/C=N/N5CCN(C)CC5)c(O)c4c3C2=O)NC(=O)/C(C)=C\C=C\[C@H](C)[C@H](O)[C@@H](C)[C@@H](O)[C@@H](C)[C@H](OC(C)=O)[C@@H]1C [RIF, Rifampicin] | – | – | – | – | – | – | – | – | – | – | – | – | – | – | – | – | – | MIC ([1]; DSM30008, 18-24 h, read-out: Minimum inhibitory concentrations (MIC)): 1.6 µg/mL (≈ 1.94 µM); MIC ([2]; DSM20478, 18-24 h, read-out: Minimum inhibitory concentrations (MIC)): 6.4 µg/mL (≈ 7.78 µM); MIC ([3]; DSM20477, 18-24 h, read-out: Minimum inhibitory concentrations (MIC)): > 6.4 µg/mL; MIC ([4]; Escherichia coli, read-out: Minimum inhibitory concentrations (MIC)): 6.4 µg/mL (≈ 7.78 µM); MIC [5, 16]: 6.4 µg/mL (≈ 7.78 µM); MIC ([6]; Escherichia coli, DSM26863, read-out: Minimum inhibitory concentrations (MIC)): 6.4 µg/mL (≈ 7.78 µM); MIC ([7]; DSM30104, 18-24 h, read-out: Minimum inhibitory concentrations (MIC)): 6.4 µg/mL (≈ 7.78 µM); MIC ([8]; DSM1128, 18-24 h, read-out: Minimum inhibitory concentrations (MIC)): > 6.4 µg/mL; MIC [9, 17]: 0.01 µg/mL (≈ 0.0122 µM); MIC ([10]; DSM346, 18-24 h, read-out: Minimum inhibitory concentrations (MIC)): 0.006 µg/mL (≈ 0.00729 µM); MIC ([11]; Staphylococcus aureus, NEWMAN, read-out: Minimum inhibitory concentrations (MIC)): > 6.4 µg/mL; MIC [12, 17]: 0.01 µg/mL (≈ 0.0122 µM); MIC ([13]; DSM11865, 18-24 h, read-out: Minimum inhibitory concentrations (MIC)): 0.1 µg/mL (≈ 0.122 µM); MIC [14, 16]: 0.4 µg/mL (≈ 0.486 µM); MIC (S. aureus Newman; Staphylococcus aureus, NEWMAN): 0.01 µg/mL (≈ 0.0122 µM); IC50 (S. aureus RNA polymerase): 30 ± 20 nM |
| sorangicin A [compound 1] | 8 | 2 | 16 | 8 | 16 | 8 | 16 | 32 | 0.03 | 1 | > 64 | not active | 0.1 | 32 | 0.25 | 0.13 | 210 ± 120 | – |
| neosorangicin A [compound 2] | 8 | 0.5 | 8 | 1 | 8 | 2 | 8 | 8 | 0.01 | 0.25 | > 64 | not active | 0.01 | 0.5 | 0.25 | 0.01 | 60 ± 10 | reduction of the bacterial load [15]: 3 Log; toxicity towards the human macrophages (Human THP-1 macrophages): without displaying any apparent toxicity |
